{"source": "patent US8053452B2", "about": "“Substituted isoxazoline or enone oxime compound, and pest control agent” (Nissan Chemical Industries, Ltd., priority 2007, dated 2011)", "key": {"Nilaparvata lugens": {"tested_on": "Nilaparvata lugens", "assay": "Mortality test for Nilaparvata lugens", "assay_type": "in vivo", "details": "144 h, drug solution 500 ppm, rice leaf sheath immersed, 2 instar larvae, after 6 days", "procedure": "(§1) A 10% emulsifiable concentrate of the compound of the present invention (depending on the type of the compound, a 10% wettable powder was subjected to the test) was diluted with water containing a spreader to prepare a drug solution in a concentration of 500 ppm. In this drug solution, a leaf sheath of rice was immersed for about 10 seconds and was air-dried and then put into a test tube. In the test tube, five 2 instar larvae of Nilaparvata lugens per test tube were released and the test tube was capped with a sponge and stored in a thermostatic room of 25° C. The number of killed larvae after 6 days was counted and the mortality was calculated from the same calculation formula as that in Test Example 1. Here, the test was carried out with two replications."}, "Plutella xylostella": {"tested_on": "Plutella xylostella", "assay": "Mortality test for Plutella xylostella", "assay_type": "in vivo", "details": "144 h", "procedure": "A 10% emulsifiable concentrate of the compound of the present invention (depending on the type of the compound, a 10% wettable powder was subjected to the test) was diluted with water containing a spreader to prepare a drug solution in a concentration of 10 ppm. In this drug solution, a leaf of cabbage was immersed for about 10 seconds and was air-dried and then put into a petri dish. In the petri dish, five 2 instar larvae of Plutella xylostella per petri dish were released and the petri dish was capped and stored in a thermostatic room of 25° C. The number of killed larvae after 6 days was counted and the mortality was calculated from the following calculation formula: Mortality(%)=(number of killed larvae/number of released larvae)×100. Here, the test was carried out with two replications."}, "Spodoptera litura": {"tested_on": "Spodoptera litura", "assay": "Mortality test for Spodoptera litura", "assay_type": "in vivo", "details": "144 h", "procedure": "(§2) A 10% emulsifiable concentrate of the compound of the present invention (depending on the type of the compound, a 10% wettable powder was subjected to the test) was diluted with water containing a spreader to prepare a drug solution in a concentration of 10 ppm. In this drug solution, a leaf of cabbage was immersed for about 10 seconds and was air-dried and then put into a petri dish. In the petri dish, five 2 instar larvae of Spodoptera litura per petri dish were released and the petri dish was capped and stored in a thermostatic room of 25° C. The number of killed larvae after 6 days was counted and the mortality was calculated from the same calculation formula as that in Test Example 1. Here, the test was carried out with two replications."}, "Eysarcoris lewisi": {"tested_on": "Eysarcoris lewisi", "assay": "Mortality test for Eysarcoris lewisi", "assay_type": "in vivo", "details": "48 h, drug solution 500 ppm, rice leaf sheath immersed, 1 instar larvae, after 2 days", "procedure": "as §1, with “five 1” for “five 2”, “of Eysarcoris lewisi” for “of Nilaparvata lugens”, “after 2” for “after 6”"}, "Aulacophora femoralis": {"tested_on": "Aulacophora femoralis", "assay": "Mortality test for Aulacophora femoralis", "assay_type": "in vivo", "details": "144 h", "procedure": "as §2, with “of 500” for “of 10”, “of cucumber” for “of cabbage”, “of Aulacophora femoralis” for “of Spodoptera litura”"}, "Liriomyza trifolii": {"tested_on": "Liriomyza trifolii", "assay": "Mortality test for Liriomyza trifolii", "assay_type": "in vivo", "details": "144 h, drug solution 500 ppm, kidney bean leaf with eggs immersed, killed larvae after 6 days", "procedure": "as §1, with “leaf” for “leaf sheath”, “kidney bean on which Liriomyza trifolii laid eggs (10 eggs/leaf) and which was cut out to a diameter of 7 cm” for “rice”, “laid on” for “put into”, “wet filtration paper laid in a styrol cup having an inner diameter” for “test tube. In the test tube, five 2 instar larvae”, “7 cm. The styrol cup” for “Nilaparvata lugens per test tube were released and the test tube”, “capped” for “capped with a sponge”"}, "Helicoverpa armigera": {"tested_on": "Helicoverpa armigera", "assay": "Mortality test for Helicoverpa armigera", "assay_type": "in vivo", "details": "144 h, drug solution 100 ppm, cabbage leaf immersed, 2 instar larva, after 6 days", "procedure": "as §2, with “of 100” for “of 10”, “dish, one” for “dish, five”, “instar larva” for “instar larvae”, “of Helicoverpa armigera” for “of Spodoptera litura”, “dish was” for “dish were”, “with 12” for “with two”"}, "Homona magnanima": {"tested_on": "Homona magnanima", "assay": "Mortality test for Homona magnanima", "assay_type": "in vivo", "details": "144 h, drug solution 100 ppm, cabbage leaf immersed, 2 instar larvae, after 6 days", "procedure": "as §2, with “of 100” for “of 10”, “of Homona magnanima” for “of Spodoptera litura”"}, "[1]": {"details": "drug solution 100 ppm (mark *), cabbage leaf immersed, 2 instar larvae, after 6 days, read-out: mortality"}}, "note": "Read-outs that look alike come from different tables or passages of the source."}
{"compound": "O=C(NCc1ccc(C2=NOC(c3cc(Cl)cc(Cl)c3)(C(F)(F)F)C2Br)cc1Br)C1CC1", "note": "(stereo not shown) [2-002, N-(2-bromo-4-(4-bromo-5-(3,5-dichlorophenyl)-5-trifluoromethyl-4,5-dihydroisoxazole-3-yl)phenylmethyl)cyclopropylcarboxamide]", "values": [{"measurement": "mortality at 500 ppm", "setting": "Nilaparvata lugens", "value": "≥ 80", "unit": "%"}]}
{"compound": "Cc1cc(C(/C=C(/c2cc(Cl)cc(Cl)c2)C(F)(F)F)=NO)ccc1C(=O)NCC(F)(F)F", "note": "[5-001, 4-((2Z)-3-(3,5-dichlorophenyl)-4,4,4-trifluoro-1-(hydroxyimino)-2-butenyl)-2-methyl-N-(2,2,2-trifluoroethyl)benzoic acid amide]", "values": [{"measurement": "mortality at 100 ppm", "setting": "Plutella xylostella; [1]", "value": "≥ 80", "unit": "%"}, {"measurement": "mortality at 100 ppm", "setting": "Spodoptera litura; [1]", "value": "≥ 80", "unit": "%"}]}
{"compound": "CSC1C(c2ccc(C(=O)NCC(F)(F)F)c(C)c2)=NOC1(c1cc(Cl)cc(Cl)c1)C(F)(F)F", "note": "(stereo not shown) [1-005, 4-(5-(3,5-dichlorophenyl)-4-methylthio-5-trifluoromethyl-4,5-dihydroisoxazole-3-yl)-2-methyl-N-(2,2,2-trifluoroethyl)benzoic acid amide]", "values": [{"measurement": "mortality at 100 ppm", "setting": "Plutella xylostella; in Brassica oleracea", "value": "≥ 80", "unit": "%"}, {"measurement": "mortality at 100 ppm", "setting": "Spodoptera litura; in Brassica oleracea", "value": "≥ 80", "unit": "%"}]}
{"compound": "Cc1cc(C2=NOC(c3cc(Cl)cc(Cl)c3)(C(F)(F)F)C2Br)ccc1C(=O)NCC(F)(F)F", "note": "(stereo not shown) [1-003, 4-(4-bromo-5-(3,5-dichlorophenyl)-5-trifluoromethyl-4,5-dihydroisoxazole-3-yl)-2-methyl-N-(2,2,2-trifluoroethyl)benzoic acid amide]", "values": [{"measurement": "mortality at 100 ppm", "setting": "Plutella xylostella; in Brassica oleracea", "value": "≥ 80", "unit": "%"}, {"measurement": "mortality at 100 ppm", "setting": "Spodoptera litura; in Brassica oleracea", "value": "≥ 80", "unit": "%"}, {"measurement": "mortality at 500 ppm", "setting": "Eysarcoris lewisi", "value": "≥ 80", "unit": "%"}, {"measurement": "mortality at 500 ppm", "setting": "Nilaparvata lugens", "value": "≥ 80", "unit": "%"}, {"measurement": "mortality at 500 ppm", "setting": "Aulacophora femoralis; in Cucumis sativus", "value": "≥ 80", "unit": "%"}, {"measurement": "mortality at 500 ppm", "setting": "Liriomyza trifolii", "value": "≥ 80", "unit": "%"}]}
{"compound": "CSc1ccc(C2=NOC(c3cc(Cl)cc(Cl)c3)(C(F)(F)F)C2Br)cc1", "note": "(stereo not shown) [4-002, 4-bromo-5-(3,5-dichlorophenyl)-3-(4-(methylthio)phenyl)-5-trifluoromethyl-4,5-dihydroisoxazole]", "values": [{"measurement": "mortality at 100 ppm", "setting": "Plutella xylostella; in Brassica oleracea", "value": "≥ 80", "unit": "%"}, {"measurement": "mortality at 100 ppm", "setting": "Spodoptera litura; in Brassica oleracea", "value": "≥ 80", "unit": "%"}, {"measurement": "mortality at 100 ppm", "setting": "Helicoverpa armigera", "value": "≥ 80", "unit": "%"}, {"measurement": "mortality at 500 ppm", "setting": "Nilaparvata lugens", "value": "≥ 80", "unit": "%"}]}
{"compound": "Cc1cc(C2=NOC(c3cc(Cl)cc(Cl)c3)(C(F)(F)F)C2Cl)ccc1C(=O)NCC(F)(F)F", "note": "(stereo not shown) [1-002, 4-(4-chloro-5-(3,5-dichlorophenyl)-5-trifluoromethyl-4,5-dihydroisoxazole-3-yl)-2-methyl-N-(2,2,2-trifluoroethyl)benzoic acid amide]", "values": [{"measurement": "mortality at 10 ppm", "setting": "Plutella xylostella; in Brassica oleracea", "value": "≥ 80", "unit": "%"}, {"measurement": "mortality at 10 ppm", "setting": "Spodoptera litura; in Brassica oleracea", "value": "≥ 80", "unit": "%"}]}
{"compound": "NC(=O)c1ccc(C2=NOC(c3cc(C(F)(F)F)cc(C(F)(F)F)c3)(C(F)(F)F)C2Br)cc1", "note": "(stereo not shown)", "values": [{"measurement": "melting point", "value": "190 to 193", "unit": "°C"}]}
{"compound": "CON=CNC(=O)c1ccc(C2=NOC(c3cc(C(F)(F)F)cc(C(F)(F)F)c3)(C(F)(F)F)C2Br)cc1", "note": "(stereo not shown) [1-011, 4-(4-bromo-5-(3,5-bis(trifluoromethyl)phenyl)-5-trifluoromethyl-4,5-dihydroisoxazole-3-yl)-N-(methoxyiminomethyl)benzoic acid amide]", "values": [{"measurement": "mortality at 100 ppm", "setting": "Plutella xylostella; in Brassica oleracea", "value": "≥ 80", "unit": "%"}, {"measurement": "mortality at 100 ppm", "setting": "Spodoptera litura; in Brassica oleracea", "value": "≥ 80", "unit": "%"}, {"measurement": "mortality at 500 ppm", "setting": "Nilaparvata lugens", "value": "≥ 80", "unit": "%"}]}
{"compound": "Cc1cc(C2=NOC(c3cc(Cl)cc(Cl)c3)(C(F)(F)F)C2C)ccc1C(=O)NCC(F)(F)F", "note": "(stereo not shown) [1-004, 4-(5-(3,5-dichlorophenyl)-4-methyl-5-trifluoromethyl-4,5-dihydroisoxazole-3-yl)-2-methyl-N-(2,2,2-trifluoroethyl)benzoic acid amide]", "values": [{"measurement": "mortality at 100 ppm", "setting": "Plutella xylostella; in Brassica oleracea", "value": "≥ 80", "unit": "%"}, {"measurement": "mortality at 100 ppm", "setting": "Spodoptera litura; in Brassica oleracea", "value": "≥ 80", "unit": "%"}, {"measurement": "mortality at 100 ppm", "setting": "Homona magnanima", "value": "≥ 80", "unit": "%"}, {"measurement": "mortality at 500 ppm", "setting": "Eysarcoris lewisi", "value": "≥ 80", "unit": "%"}, {"measurement": "mortality at 500 ppm", "setting": "Aulacophora femoralis; in Cucumis sativus", "value": "≥ 80", "unit": "%"}, {"measurement": "mortality at 500 ppm", "setting": "Liriomyza trifolii", "value": "≥ 80", "unit": "%"}]}
{"compound": "CC1C(c2ccc(CN(C)C(=O)C3CC3)c(Br)c2)=NOC1(c1cc(Cl)cc(Cl)c1)C(F)(F)F", "note": "(stereo not shown) [2-005, N-(2-bromo-4-(5-(3,5-dichlorophenyl)-4-methyl-5-trifluoromethyl-4,5-dihydroisoxazole-3-yl)phenylmethyl)-N-(methyl)cyclopropanecarboxamide]", "values": [{"measurement": "mortality at 500 ppm", "setting": "Plutella xylostella; in Brassica oleracea", "value": "≥ 80", "unit": "%"}, {"measurement": "mortality at 500 ppm", "setting": "Spodoptera litura; in Brassica oleracea", "value": "≥ 80", "unit": "%"}]}
{"compound": "Cc1cc(C(/C=C(\\c2cc(Cl)cc(Cl)c2)C(F)(F)F)=NO)ccc1C(=O)NCC(F)(F)F", "note": "[6-001, 4-((2E)-3-(3,5-dichlorophenyl)-4,4,4-trifluoro-1-(hydroxyimino)-2-butenyl)-2-methyl-N-(2,2,2-trifluoroethyl)benzoic acid amide]", "values": [{"measurement": "mortality at 500 ppm", "setting": "Plutella xylostella; drug solution 500 ppm (mark **), cabbage leaf immersed, 2 instar larvae, after 6 days, read-out: mortality", "value": "≥ 80", "unit": "%"}, {"measurement": "mortality at 500 ppm", "setting": "Aulacophora femoralis; drug solution 500 ppm, cucumber leaf immersed, 2 instar larvae, after 6 days, read-out: mortality", "value": "≥ 80", "unit": "%"}]}
